According to US12168646B2, “Aryl hydrocarbon receptor agonists and uses thereof” (NEXYS THERAPEUTICS, INC., priority 2022, dated 2024):
Where two headings read alike, the source gives them in different places.

Columns and labels:
AhR = molecular target: T1, AhR (Homo sapiens, UniProt P35869); assay: HT29 AhR Reporter Assay (HT29-Lucia AhR cells, QUANTI-Luc luminescence); format: cell-based; conditions: for EC50: 18-24 h, EC50 = concentration to reach half of maximum efficacy of reference compound VAF347; for Emax: read-out: HT29 AhR % efficacy
T1 construct: HT29-Lucia AhR cells were purchased from Invivogen (cat #ht21-ahr); host or cells: HT29-Lucia AhR cells
T1 sequence (P35869 11-848): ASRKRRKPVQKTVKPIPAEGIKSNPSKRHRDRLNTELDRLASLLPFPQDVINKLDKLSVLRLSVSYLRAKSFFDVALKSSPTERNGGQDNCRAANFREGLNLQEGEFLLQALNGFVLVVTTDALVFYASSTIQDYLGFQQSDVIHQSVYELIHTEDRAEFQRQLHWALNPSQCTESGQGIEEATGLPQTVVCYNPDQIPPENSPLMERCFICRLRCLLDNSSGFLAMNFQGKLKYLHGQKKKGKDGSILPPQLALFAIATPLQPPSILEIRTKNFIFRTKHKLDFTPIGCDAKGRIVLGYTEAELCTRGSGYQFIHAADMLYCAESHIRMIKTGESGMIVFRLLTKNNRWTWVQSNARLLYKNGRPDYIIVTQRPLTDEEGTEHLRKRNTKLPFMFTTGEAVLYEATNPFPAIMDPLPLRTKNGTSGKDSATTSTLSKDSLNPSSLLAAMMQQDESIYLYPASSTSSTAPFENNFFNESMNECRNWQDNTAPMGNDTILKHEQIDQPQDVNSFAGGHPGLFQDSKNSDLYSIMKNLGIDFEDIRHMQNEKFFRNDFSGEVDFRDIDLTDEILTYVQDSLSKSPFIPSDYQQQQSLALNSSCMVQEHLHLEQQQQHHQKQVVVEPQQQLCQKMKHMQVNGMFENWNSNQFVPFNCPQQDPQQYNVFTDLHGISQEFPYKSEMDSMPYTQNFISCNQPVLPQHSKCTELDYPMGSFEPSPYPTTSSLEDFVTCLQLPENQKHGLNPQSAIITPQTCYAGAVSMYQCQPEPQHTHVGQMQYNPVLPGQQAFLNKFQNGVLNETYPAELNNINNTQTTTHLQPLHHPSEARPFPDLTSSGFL
Experimental: Biological Data 1: HT29 AhR Reporter Assay HT29-Lucia AhR cells were purchased from Invivogen (cat #ht21-ahr). […] The cell suspension was removed from growth medium and rinsed gently with pre-warmed PBS (10 mL). Pre-warmed Trypsin (1 mL) was added, and cells were held at 30° C. for about 5 min and then detached by pipette. The dissociated cell clumps were gently pipetted up and down. The cells were resuspended in pre-warmed detection medium (DMEM, 10% FBS (30 min at 56° C.), 100 U/ml penicillin, 100 μg/ml streptomycin, and test article or vehicle) and counted. A cell suspension of ˜500,000 cells/mL in Detection medium was prepared. […] Samples (20 μL/well) were pipetted into a 96-well white (opaque), and QUANTI-Luc™ (50 μL/well) was added. The plate was gently tapped and then read in a luminometer (0.1 s reading time).

[1] = Stability in human feces (azo reduction in feces homogenate); format: in vitro ADME; conditions: pH 6.8, 37° C., under nitrogen
Experimental: Biological Data 2: Stability in Human Feces
Accordingly, selected azo compounds of the invention were exposed to human feces under conditions suitable to promote azo reduction.
The human feces from two donors were homogenized in isotonic phosphate buffered saline (pH 6.8) with a ratio of 1:10 (w/v). The tubes were sealed using sealing film. Test article was dissolved in isotonic phosphate buffer (pH 6.8) to form a working solution of 20 μM (if the solubility allows). An aliquot of working solution (50 μL) was added to the human feces homogenate (50 μL) for each time point (0, 1, 2, 4, 6 and 24 h) in duplicate and placed under nitrogen for about 1 minute in order to exhaust air, and then incubated at 37° C. After incubation at each pre-set time point, 1000 μL acetonitrile containing internal standard w as added to each tube to quench reaction. Samples were vortexed and centrifuged at 3700 rpm for 10 min and the supernatant was transferred for analysis (and diluted where necessary). The concentrations of test article and its metabolite (example 3) in the supernatants were determined using LC-MS/MS method. Sulfasalazine was used as a positive control. All incubations were performed in duplicate.

[2] = HT29-Lucia AhR cells, % efficacy = 100%*(TA-BG)/(Ref-BG), Ref = VAF347

Row | Structure (SMILES) | EC50 (AhR; HT29-Lucia AhR cells) [µM] | Emax (AhR; [2]) [%] | % of parent remaining after incubation for 6 h [1] [%] | Emax (AhR) [%]
1 | Nc1cccc(Nc2nccc(-c3ccccc3O)n2)c1 [Example 26, 2-(2-((3-aminophenyl)amino)pyrimidin-4-yl)phenol] | > 30 | 141 | – | –
2 | Nc1ccc(Cl)cc1-c1ccnc(Nc2ccc(C(F)(F)F)cc2)n1 [Example 4, 4-(2-amino-5-chlorophenyl)-N-(4-(trifluoromethyl)phenyl)pyrimidin-2-amine] | > 30 | – | – | 18
3 | Nc1ccc(Nc2nccc(-c3ccccc3O)n2)cc1 [Example 25, 2-(2-((4-aminophenyl)amino)pyrimidin-4-yl)phenol] | 6.92 | 21 | – | –
4 | Nc1cc(Cl)cc(-c2ccnc(Nc3ccc(C(F)(F)F)cc3)n2)c1 [Example 6, 4-(3-amino-5-chlorophenyl)-N-(4-(trifluoromethyl)phenyl)pyrimidin-2-amine] | > 30 | 15 | – | –
5 | Nc1cccc(-c2ccnc(Nc3ccc(C(=O)O)cc3)n2)c1 [Example 18, 4-((4-(3-aminophenyl)pyrimidin-2-yl)amino)benzoic acid] | > 30 | 10 | – | –
6 | Nc1ccccc1-c1ccnc(Nc2ccc(C(F)(F)F)cc2)n1 [Example 3, 4-(2-aminophenyl)-N-(4-(trifluoromethyl)phenyl)pyrimidin-2-amine] | 1.33 | – | – | 165
7 | Nc1cc(C(F)(F)F)ccc1Nc1nccc(-c2cccc(Cl)c2)n1 [Example 21, N^1-(4-(3-chlorophenyl)pyrimidin-2-yl)-4-(trifluoromethyl)benzene-1,2-diamine] | > 30 | 27 | – | –
8 | Nc1ccc(O)c(-c2ccnc(Nc3ccc(C(F)(F)F)cc3)n2)c1 [Example 11, 4-amino-2-(2-((4-(trifluoromethyl)phenyl)amino)pyrimidin-4-yl)phenol] | > 30 | – | – | -17
9 | Nc1cccc(C(=O)O)c1-c1ccnc(Nc2ccc(C(F)(F)F)cc2)n1 [Example 9] | 2.62 | – | – | 89
10 | FC(F)(F)c1ccc(Nc2nccc(-c3cccc(Cl)c3)n2)cc1 [VAF347, reference compound] | 0.026 | 100 | – | –
11 | Nc1cccc(-c2ccnc(Nc3cccc(C(=O)O)c3)n2)c1 [Example 20, 3-((4-(3-aminophenyl)pyrimidin-2-yl)amino)benzoic acid] | > 30 | 13 | – | –
12 | Nc1ccc(-c2ccnc(Nc3ccc(C(F)(F)F)cc3)n2)cc1 [Example 1, 4-(4-aminophenyl)-N-(4-(trifluoromethyl)phenyl)pyrimidin-2-amine] | > 30 | – | – | 16
13 | CS(=O)(=O)c1ccc(N)cc1-c1ccnc(Nc2ccc(C(F)(F)F)cc2)n1 [Example 14, 4-(5-amino-2-(methylsulfonyl)phenyl)-N-(4-(trifluoromethyl)phenyl)pyrimidin-2-amine] | 16.9 | – | – | 51
14 | Nc1ccc(O)cc1-c1ccnc(Nc2ccc(C(F)(F)F)cc2)n1 [Example 12, 4-amino-3-(2-((4-(trifluoromethyl)phenyl)amino)pyrimidin-4-yl)phenol] | > 30 | – | – | 17
15 | Nc1cc(Nc2nccc(-c3cccc(Cl)c3)n2)ccc1C(F)(F)F [Example 22, N^1-(4-(3-chlorophenyl)pyrimidin-2-yl)-4-(trifluoromethyl)benzene-1,3-diamine] | 0.018 | 124 | – | –
16 | CS(=O)(=O)c1ccc(N)c(-c2ccnc(Nc3ccc(C(F)(F)F)cc3)n2)c1 [Example 13, 4-(2-amino-5-(methylsulfonyl)phenyl)-N-(4-(trifluoromethyl)phenyl)pyrimidin-2-amine] | > 30 | – | – | 7
17 | Nc1cc(Nc2nccc(-c3cccc(C(=O)O)c3)n2)ccc1C(F)(F)F [Example 24, 3-(2-((3-amino-4-(trifluoromethyl)phenyl)amino)pyrimidin-4-yl)benzoic acid] | > 30 | 5 | – | –
18 | Nc1ccc(-c2ccnc(Nc3ccc(C(F)(F)F)cc3)n2)cc1Cl [Example 5, 4-(4-amino-3-chlorophenyl)-N-(4-(trifluoromethyl)phenyl)pyrimidin-2-amine] | 20 | 46 | – | –

The next lines start with results.

Row | EC50 (AhR; HT29-Lucia AhR cells) [µM] | Emax (AhR; [2]) [%] | % of parent remaining after incubation for 6 h [1] [%] | Structure (SMILES) | Emax (AhR) [%]
19 | – | – | 33 | N[C@H](Cc1cc(/N=N/c2ccccc2-c2ccnc(Nc3ccc(C(F)(F)F)cc3)n2)ccc1O)C(=O)O [Example 49, (R,E)-2-amino-3-(2-hydroxy-5-((2-(2-((4-(trifluoromethyl)phenyl)amino)pyrimidin-4-yl)phenyl)diazenyl)phenyl)propanoic acid] | –
20 | – | – | 19 | O=C(O)c1ccc(O)c(/N=N/c2ccccc2-c2ccnc(Nc3ccc(C(F)(F)F)cc3)n2)c1 [Example 36, (E)-4-Hydroxy-3-((2-(2-((4-(trifluoromethyl)phenyl)amino)pyrimidin-4-yl)phenyl)diazenyl)benzoic acid] | –
21 | – | – | 76 | O=C(O)c1cc(O)cc(/N=N/c2ccccc2-c2ccnc(Nc3ccc(C(F)(F)F)cc3)n2)c1 [Example 55, (E)-3-hydroxy-5-((2-(2-((4-(trifluoromethyl)phenyl)amino)pyrimidin-4-yl)phenyl)diazenyl)benzoic acid] | –
22 | 9.24 | 69 | – | Nc1ccc(CC(=O)O)c(-c2ccnc(Nc3ccc(C(F)(F)F)cc3)n2)c1 [Example 10, 2-(4-amino-2-(2-((4-(trifluoromethyl)phenyl)amino)pyrimidin-4-yl)phenyl)acetic acid] | –
23 | – | – | 49 | O=C(O)c1cc(/N=N/c2ccccc2-c2ccnc(Nc3ccc(C(F)(F)F)cc3)n2)ccc1O [Example 32, (E)-2-hydroxy-5-((2-(2-((4-(trifluoromethyl)phenyl)amino)pyrimidin-4-yl)phenyl)diazenyl)benzoic acid] | –
24 | – | – | 74 | COc1ccc(/N=N/c2ccccc2-c2ccnc(Nc3ccc(C(F)(F)F)cc3)n2)cc1C(=O)O [Example 43, (E)-2-methoxy-5-((2-(2-((4-(trifluoromethyl)phenyl)amino)pyrimidin-4-yl)phenyl)diazenyl)benzoic acid] | –
25 | > 30 | 33 | – | Nc1cc(Nc2nccc(-c3ccccc3C(=O)O)n2)ccc1C(F)(F)F [Example 23, 2-(2-((3-amino-4-(trifluoromethyl)phenyl)amino)pyrimidin-4-yl)benzoic acid] | –
26 | – | – | 95 | O=C(O)c1cccc(/N=N/c2ccccc2-c2ccnc(Nc3ccc(C(F)(F)F)cc3)n2)c1 [Example 34, (E)-3-((2-(2-((4-(trifluoromethyl)phenyl)amino)pyrimidin-4-yl)phenyl)diazenyl)benzoic acid] | –
27 | – | – | 98 | COc1cc(/N=N/c2ccccc2-c2ccnc(Nc3ccc(C(F)(F)F)cc3)n2)ccc1C(=O)O [Example 42, (E)-2-methoxy-4-((2-(2-((4-(trifluoromethyl)phenyl)amino)pyrimidin-4-yl)phenyl)diazenyl)benzoic acid] | –
28 | > 30 | 29 | – | Nc1ccc(C(=O)O)c(-c2ccnc(Nc3ccc(C(F)(F)F)cc3)n2)c1 [Example 7, 4-amino-2-(2-((4-(trifluoromethyl)phenyl)amino)pyrimidin-4-yl)benzoic acid] | –
29 | > 30 | 13 | – | Nc1ccc(-c2ccnc(Nc3ccc(C(F)(F)F)cc3)n2)c(C(=O)O)c1 [Example 8, 5-amino-2-(2-((4-(trifluoromethyl)phenyl)amino)pyrimidin-4-yl)benzoic acid] | –
